According to patent publication US20230067847A1, “COMBINATION OF BERBERINE AND DERIVATIVES THEREOF, AND VITAMIN B12” (NANJING NUTRABUILDING BIO-TECH CO., LTD., priority 2021, published 2023):

How the values were obtained:
high-fat diet (HFD) mice [1] = test: Fasting blood glucose in HFD mice during 3 months of supplementation; assay type: in vivo; details: after three months (12th week), gavage once daily, FIG. 1a
Experimental: (§1) The high-fat diet (HFD, containing 60% fat by energy) mice at 8 weeks of age were divided into three groups: (1) non-supplement group (Con, n=5); (2) DHB supplement group (DHB, 100 mg/kg, n=5); […] VB12=100 mg/kg: 200 mg/kg, n=5). All mice were administered these things before each major meal for once daily (2 g/kg body weight) by gavage in normal saline solution for 3 months. Blood samples were collected from tail tips in a fasting state to measure serum VB 12, serum homocysteine, glucose, and serum holo-transcobalamin II (holo-TCII, a biologically active fraction for TCII receptors synthesis) and weighed the mice for 0th, 2th, 4th, 6th, 8th, 10th and 12th week. After 3 months of supplementation, glycated hemoglobin (HbA1c) was measured. Also, the insulin tolerance test was performed after 3 months of supplementation after subcutaneous injection of insulin (0.4 U/kg, 0.05 ml/10 g body weight) for 0, 30, 90 minutes. […] Elevated homocysteine was defined as > 15 µM/L. Vitamin B12 levels and holo-TCII were measured by using immunoassay analyzer to confirm the improvement in TCII receptors synthesis and VB12 levels. Serum homocysteine levels were measured using the chemiluminescent microparticle immunoassay to show the VB12 levels. HbA1c was determined with automated glycohemoglobin analyzer, which can indicate the effect of blood glucose control during the trial. […]

high-fat diet (HFD) mice [2] = test: Insulin tolerance test in HFD mice after 3 months of supplementation; assay type: in vivo; details: 90 minutes after subcutaneous insulin 0.4 U/kg, FIG. 1d
Experimental: as §1

high-fat diet (HFD) mice [3] = test: Serum VB12 level in HFD mice (immunoassay analyzer); details: mouse, in vivo
Experimental: The high-fat diet (HFD, containing 60% fat by energy) mice at 8 weeks of age were divided into three groups: (1) non-supplement group (Con, n=5); (2) DHB supplement group (DHB, 100 mg/kg, n=5); (3) the combination of DHB and VB12 supplement group (DHB+VB12, DHB: VB12=100 mg/kg: 200 mg/kg, n=5). All mice were administered these things before each major meal for once daily (2 g/kg body weight) by gavage in normal saline solution for 3 months.
Blood samples were collected from tail tips in a fasting state to measure serum VB 12, serum homocysteine, glucose, and serum holo-transcobalamin II (holo-TCII, a biologically active fraction for TCII receptors synthesis) and weighed the mice for 0th, 2th, 4th, 6th, 8th, 10th and 12th week. After 3 months of supplementation, glycated hemoglobin (HbA1c) was measured. […] Elevated homocysteine was defined as > 15 µM/L. Vitamin B12 levels and holo-TCII were measured by using immunoassay analyzer to confirm the improvement in TCII receptors synthesis and VB12 levels. Serum homocysteine levels were measured using the chemiluminescent microparticle immunoassay to show the VB12 levels. HbA1c was determined with automated glycohemoglobin analyzer, which can indicate the effect of blood glucose control during the trial. […]

high-fat diet (HFD) mice [4] = test: Glycated hemoglobin (HbA1c) in HFD mice after 3 months of supplementation; assay type: in vivo; details: after three months of supplementation, FIG. 1e
Experimental: as §1

With COc1ccc2c(c1OC)CN1CCc3cc4c(cc3C1=C2)OCO4 [DHB, dihydroberberine] the “blood glucose level decreased compared to the control group” value (high-fat diet (HFD) mice [1]) was “about 35%”, the “blood glucose level lower than control group in insulin tolerance test” value (high-fat diet (HFD) mice [2]) was “about 15%” and the “serum total VB12 change” value (high-fat diet (HFD) mice [3]) was “significantly decreased”. For the same molecule, the “HbA1c level decreased compared to the control group” value (high-fat diet (HFD) mice [4]) was “about 20%”.
